Like-named read-outs stand apart in the source and are kept apart here.
Legend:
[1] = target: human recombinant 5-HT2A receptor (Homo sapiens (Human), UniProt P28223); test: 5-HT2A receptor binding inhibition test ([3H]-Ketanserin); conditions: Jump-In HEK cell membrane, 25° C. 1.5 hours
In short: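 Membranes from Jump-In HEK cells expressing the receptor were incubated with [3H]-ketanserin at about its Kd (from Scatchard analysis) in Tris-HCl pH 7.4 buffer for 1.5 h at 25° C, then filtered and counted. Non-specific binding was defined with 500 μmol/L serotonin, and Ki was taken from dose-response curves.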

[2] = target: human ether-a-go-go related gene (hERG) channel (Homo sapiens (Human), UniProt Q12809); test: hERG test (FluxOR II potassium channel assay, FLIPR); type: cell-based; conditions: CHO cells expressing hERG channel, thallium flux fluorescence, 10 minutes
Description: Test Example 3: hERG Test
For the purpose of evaluating risk of an electrocardiogram QT interval prolongation of the compound of the present invention, effects of the compound are studied by evaluating the activity of potassium channel using CHO cells expressing human ether-a-go-go related gene (hERG) channel.
Evaluation is performed using a FluxORII Green Potassium IonCgannel Assay kit
(Invitrogen: Molecular Probes).
Cells are seeded in a 384-assay plate (8000 cells/well/40 μL) and incubated (37° C., […] overnight. After replacing the medium with a Wash buffer (1×HBSS, 20 mM HEPES) with a microplate washer, a fluorescent indicator is added to the medium and allowed to incubate (37° C., 5% CO2) for 1 hour for incorporation of the fluorescent indicator into cells.
A cell plate is placed on a cell-based kinetic assay system FLIPR (Molecular Devices, LLC.), and the compound is added to the cells so as to have a desired concentration and reacted for 10 minutes. When a mixed solution of potassium and thallium as a stimulator is added thereto, the potassium channel is opened, and thallium that flowed into the cells binds to the fluorescent indicator, so that the intracellular fluorescence signal increases, and the potassium channel current is detected as a fluorescence signal. For the inhibition rate at each concentration, the signal intensity when E-4031 is added to cells at a final concentration of 10.3 μmol/L is defined as an inhibition rate of 100%, and the signal intensity when DMSO is added to cells at a final concentration of 0.5% is defined as an inhibition rate of 0%. Then, the inhibition rate is calculated from the signal intensity at each concentration. IC50 is calculated from the inhibition rate at each concentration.

[3] = read-out: human serotonin 5-HT2A receptor binding activity Ki

human ether-a-go-go related gene (hERG) channel, sequence (Q12809 whole entry): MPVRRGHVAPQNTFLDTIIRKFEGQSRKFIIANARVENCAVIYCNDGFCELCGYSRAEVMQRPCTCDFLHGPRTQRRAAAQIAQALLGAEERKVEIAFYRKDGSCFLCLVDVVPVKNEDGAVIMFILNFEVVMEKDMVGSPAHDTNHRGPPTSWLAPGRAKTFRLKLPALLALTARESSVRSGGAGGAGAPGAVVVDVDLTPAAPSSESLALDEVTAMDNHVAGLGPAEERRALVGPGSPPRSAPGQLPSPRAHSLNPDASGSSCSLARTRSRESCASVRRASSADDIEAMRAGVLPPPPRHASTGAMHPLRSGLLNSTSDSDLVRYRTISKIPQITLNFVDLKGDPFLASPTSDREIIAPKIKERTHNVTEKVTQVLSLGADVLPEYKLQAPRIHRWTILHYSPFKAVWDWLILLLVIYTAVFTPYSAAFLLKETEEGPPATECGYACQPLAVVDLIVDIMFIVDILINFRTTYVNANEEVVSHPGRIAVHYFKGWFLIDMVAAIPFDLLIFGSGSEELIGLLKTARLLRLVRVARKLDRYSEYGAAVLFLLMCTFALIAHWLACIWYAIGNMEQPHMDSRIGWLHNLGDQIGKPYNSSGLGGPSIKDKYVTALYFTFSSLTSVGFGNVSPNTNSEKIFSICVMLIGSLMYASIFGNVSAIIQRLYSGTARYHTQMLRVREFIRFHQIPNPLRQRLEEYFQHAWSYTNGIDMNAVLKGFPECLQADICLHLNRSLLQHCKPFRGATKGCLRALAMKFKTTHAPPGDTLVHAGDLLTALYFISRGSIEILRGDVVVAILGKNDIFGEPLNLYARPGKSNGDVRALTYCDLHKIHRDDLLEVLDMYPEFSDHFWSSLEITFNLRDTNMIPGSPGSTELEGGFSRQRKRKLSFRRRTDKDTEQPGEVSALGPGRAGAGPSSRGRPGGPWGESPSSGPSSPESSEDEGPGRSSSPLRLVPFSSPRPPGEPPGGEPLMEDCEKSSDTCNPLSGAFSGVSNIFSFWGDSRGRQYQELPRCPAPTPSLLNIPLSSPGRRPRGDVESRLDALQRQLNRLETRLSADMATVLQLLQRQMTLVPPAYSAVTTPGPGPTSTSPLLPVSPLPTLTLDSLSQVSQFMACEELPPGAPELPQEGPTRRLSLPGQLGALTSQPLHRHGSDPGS
human recombinant 5-HT2A receptor, sequence (P28223 whole entry): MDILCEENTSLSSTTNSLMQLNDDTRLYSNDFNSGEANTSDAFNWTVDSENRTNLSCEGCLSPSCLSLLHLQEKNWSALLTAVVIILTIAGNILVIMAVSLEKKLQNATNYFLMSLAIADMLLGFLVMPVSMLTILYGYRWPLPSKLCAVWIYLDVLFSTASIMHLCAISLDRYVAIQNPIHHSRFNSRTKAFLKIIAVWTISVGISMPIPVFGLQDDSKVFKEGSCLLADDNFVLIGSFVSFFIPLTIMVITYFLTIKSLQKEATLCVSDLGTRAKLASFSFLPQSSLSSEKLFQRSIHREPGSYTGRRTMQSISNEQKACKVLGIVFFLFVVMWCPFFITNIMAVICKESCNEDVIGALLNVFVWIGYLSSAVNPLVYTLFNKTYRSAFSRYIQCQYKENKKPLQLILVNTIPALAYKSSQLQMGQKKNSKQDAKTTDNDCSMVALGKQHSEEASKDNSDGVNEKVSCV

Compound	Ki [1, 3] [nM]	Ki ([1]; read-out: h-5-HT2A Ki) [nM]	IC50 [2] [nM]
CC(C)COc1ccc(CN(Cc2coc(CF)n2)C2=NOC3(CCN(C)CC3)N2)cc1 [Compound I-067]	1.37	< 10	16300
CCCCOc1ccc(CN(Cc2coc(C)n2)C2=NOC3(CCN(C)CC3)N2)cc1 [Compound I-080]	0.823	< 10	> 52000
Cc1nc(CN(Cc2ccc(OCC(F)(F)C(F)(F)F)cc2F)C2=NOC3(CCN(C)CC3)N2)co1 [Compound I-104]	1.56		20600
CCCCOc1ccc(CN(Cc2coc(CF)n2)C2=NOC3(CCN(C)CC3)N2)cc1 [Compound I-105]	0.979		17900
CCCCOc1ccc(CN(Cc2cnn(C)n2)C2=NOC3(CCN(C)CC3)N2)cc1 [Compound I-113]	1.2		> 52000

The next lines start with results.

Ki [1, 3] [nM]	Compound	Ki ([1]; read-out: h-5-HT2A Ki) [nM]	IC50 [2] [nM]
0.74	CCCCOc1ccc(CN(Cc2coc(C)n2)C2=NOC3(CCN(C)CC3)N2)c(F)c1 [Compound I-114]		> 52000
0.703	CCCCOc1ccc(CN(Cc2coc(C)n2)C2=NOC3(CCN(C)CC3)N2)cc1F [Compound I-115]		> 52000
1.26	Cc1nc(CN(Cc2ccc(CCC(F)(F)F)cc2)C2=NOC3(CCN(C)CC3)N2)co1 [Compound I-125]		20000
1.36	Cc1nc(CN(Cc2ccc(OCC(C)C)cc2F)C2=NOC3(CCN(C)CC3)N2)co1 [Compound I-128]		> 52000

— US20250026765A1, “SPIROHETEROCYCLE DERIVATIVE HAVING SEROTONIN RECEPTOR BINDING ACTIVITY” (Shionogi & Co., Ltd., priority 2021, published 2025)
